From paper PMC10051705, “Leishmanicidal Activity of Guanidine Derivatives against Leishmania infantum” (Tropical Medicine and Infectious Disease, 2023)

How the values were obtained:
[1] = test system: monocytes in PBMCs; test: nitrite assay (Griess reaction) in PBMC/monocytes infected or not with L. infantum; format: cell-based, human; details: for nitrite production: compound at 1× EC50, 24 h
Experimental: To perform the nitrite assay, PBMCs were obtained from five healthy volunteers (3 males, mean age 28.67 ± 2.96; and 2 females, mean age 28.50 ± 0.5) from João Pessoa, PB Brazil. Briefly, peripheral blood was diluted 1:1 with phosphate-buffered saline (PBS) and slowly layered over using Ficoll® Paque PLUS (GE Healthcare, Waukesha, WI, USA). Tubes were centrifuged at 400× g for 40 min at 20 °C. After centrifugation, PBMCs were harvested, washed three times with PBS, and resuspended in RPMI medium supplemented with antibiotics (penicillin 200 U/mL and streptomycin 0.1 mg/mL), 1 mM l-glutamine, and 10% inactivated human serum. Cell viability was assessed using a trypan blue dye exclusion assay. Cells were counted using a hemocytometer.
Promastigotes were prepared as previously described. Briefly, to confirm the infection, the L. infantum promastigotes were labeled with carboxyfluorescein diacetate succinimidyl ester (CFSE) (CellTrace ™ CFSE Cell Proliferation Kit; Eugene, OR, USA). The suspension was incubated for 15 min at 5% CO2, 37 °C, and washed three times with PBS containing 10% inactivated FBS producing CFSE-labeled L. infantum, which was added to PBMCs. The infection ratio was set at 1:10 (monocyte: L. infantum) for 3 h. After the infection, cells were washed three times with PBS supplemented with 10% FBS.
The plates were incubated for 24 h in a 5% CO2 incubator at 37 °C. The plates were centrifuged at 200× g for 8 min at 4 °C, and the supernatant was collected to measure reactive nitrogen production. CD14 surface antibody (PERCP-Cy5.5; clone MΦP9) was used for monocyte labeling (Figure S1). After adding the antibody, the plate was incubated at 4 °C for 15 min, protected from light. The cells were washed with ice-cold PBS buffer. The plate was centrifuged at 200× g again for 10 min at 4 °C. The supernatant was removed, the cells were resuspended in 100 µL of PBS buffer and 100 µL of 4% formaldehyde solution, then read on a flow cytometer (BD FACSCanto II, BD Biosciences, San Jose, CA, USA). FlowJo v.10.8.1 software was used to analyze the raw data. After obtaining PBMC, the cells were plated and incubated with LQOFG-7 and AmB at a concentration of 1× the EC50 value, with media or lipopolysaccharide (LPS) stimulus (lipopolysaccharide derived from Escherichia coli, Sigma-Aldrich O111:B4) at 100 ng/mL [26, 27, 28]. The culture supernatants from those infected and non-infected were evaluated for the stable end-product of reactive nitrogen species (NO, nitrates, and nitrites) using the Griess reaction, according to the Cayman Chemical instruction manual (Cayman Chemical, Ann Arbor, MI, USA). The nitrite level was determined by measuring the absorbance at a wavelength of 540 nm using a microplate reader (BioTek-ELx800).

[2] = test system: peripheral blood mononuclear cells (PBMCs); test: in vitro cytotoxicity in PBMC (MTT); format: cell-based, human; details: human PBMC, 24 h, MTT
Experimental: In vitro cytotoxicity was evaluated using peripheral blood mononuclear cells (PBMCs) collected from three healthy volunteers (2 males, mean age 33; and 1 person). PBMCs were separated by density gradient using Ficoll Paque PLUS (GE Healthcare, USA), pelleted by centrifugation (400× g for 40 min), and resuspended in RPMI 1640 medium, then supplemented with 10% fetal bovine serum and 1% antibiotic solution (penicillin 5000 Units/mL + streptomycin 5000 μg/mL). After 24 h of treatment, cell viability was evaluated by the modified colorimetric method based on the tetrazolium dye MTT (3-(4,5-dimethylthiazol-2-yl)-2,5- diphenyltetrazolium bromide). The MTT assay was used for in vitro cytotoxicity as previously described with the following modifications: cells were exposed to serially diluted concentrations of LQOFG-2, LQOFG-6, LQOFG-7 (1000 to 7.8 µM), and AmB (100 to 0.78 µM). The plates were kept at 37 °C for 24 h. MTT (5 mg/mL) was added and incubated for 4 h at 37 °C, after which the plates were centrifuged, the supernatant was discarded, and DMSO was added, leaving the plates under stirring to solubilize the formazan salts. Absorbance was measured at 540 nm using a plate reader (ELx800; Curitiba, PR, Brazil). The mean percentage of viable cells was calculated relative to the untreated control.

| Structure (SMILES) | nitrite production ([1]; monocytes infected with L. infantum, not LPS-activated, untreated infected 0.367 ± 1.48 µM) [µM] | nitrite production ([1]; uninfected human monocytes (PBMC), untreated control 3.81 ± 1.36 µM) [µM] | CC50 [2] [µM] | nitrite production ([1]; monocytes infected with L. infantum, LPS-activated (100 ng/mL)) [µM] | increase in nitrite production (in words) ([1]; monocytes infected with L. infantum, treatment at EC50) |
| --- | --- | --- | --- | --- | --- |
| O=C(/N=C(/NCc1ccccc1)Nc1ccc(I)cc1)c1ccccc1 [LQOFG-7, (Z)-N-((benzylamine)((4-iodophenyl)amino)methylene)benzamide] | 13.5 ± 1.30 | 10.5 ± 3.58 |  |  |  |
| C[C@@H]1[C@H](O)[C@@H](C)/C=C/C=C/C=C/C=C/C=C/C=C/C=C/[C@H](O[C@@H]2O[C@H](C)[C@@H](O)[C@H](N)[C@@H]2O)C[C@@H]2O[C@](O)(C[C@@H](O)C[C@@H](O)[C@H](O)CC[C@@H](O)C[C@@H](O)CC(=O)O[C@H]1C)C[C@H](O)[C@H]2C(=O)O [Amphotericin B, reference compound] |  |  | 53.8 ± 3.59 | 13.6 ± 4.25 | no significant increase |
